The subject of one assay is human adult PBMCs. Briefly: Cytokine production by stimulated human adult PBMCs (ELISA / multiplex). Format: cell-based. How it is done:
ELISAs and Multiplex-Analyte Assays. Supernatants derived from human PBMCs stimulations were assayed by ELISA for TNF and IL-6 (ThermoFisher Scientific; Waltham, MA, USA). Cytokine and chemokine expression profiles (e.g., IFNγ, IL-9, IL-10, IL-12 (p70), IL-13, IL-1β, IL-23, IL-27, IL-28A, IL-33, IL-6, MIP-3α/CCL20, and TNF) in cell culture supernatants were measured using a customized Milliplex® Human Th17 Magnetic Bead Panel according to the manufacturer's instructions (Millipore, Chicago, IL, USA). Assays were read and analyzed on the Luminex® 100/200TM System and xPOTENT® software (Luminex, Austin, TX). A minimum threshold was set at the minimum detectable concentration for each individual assay, defined as three standard deviations above the mean background.
PBMCs were isolated from blood using a Ficoll density gradient. PBMCs either used fresh or were stored at 5×10^7 cells per vial in 1 mL RPMI containing 20% autologous plasma and 10% DMSO at −80° C. until use. […] PBMCs isolated from human adult donors or THP1-NF-κB cells were resuspended at a concentration of 10^5 cells/200 μl of RPMI supplemented with 10% of platelet-poor plasma or THP1 culture medium, respectively. […] After 24 hours of incubation (37° C., 5% CO2), plates were spun down (500×g, room temperature, 5 minutes) and supernatants were harvested for further analysis.
(In general: An ELISA detects its analyte on a solid surface through an enzyme-linked reagent.)

The subject of a further assay is C57BL/6 mice. Briefly: Mouse immunization with rHA, anti-rHA IgG titers by ELISA. The following applies: adult C57BL/6 mice, rHA formulated with compound (100 nmol) i.m., prime Day 0, boost Day 28, versus rHA alone; listed as 080. Format: in vivo. How it is done: C57BL/6 mice were obtained from Charles River Laboratories and housed in specific pathogen-free conditions in the animal research facilities at Boston Children's Hospital.
For immunization experiments, adult mice were immunized intramuscularly (i.m.) in the right posterior thigh with 50 μl of vaccine containing 0.33 μg of each of the following recombinant influenza virus hemagglutinins (rHA): A/Michigan/45/2015 (H1N1), A/Hong Kong/4801/2014 (H3N2), and B/Brisbane/60/2008, contained in the 2016-2017 formulation of the FluBlok vaccine (Protein Sciences Corp.). Mice were immunized with a prime-boost schedule (two injections four weeks apart). Vaccine in all experimental groups was formulated with 10% (v/v) DMSO (except for the groups immunized with the small molecules since they were dissolved in DMSO) and 5% (v/v) Tween-80. As indicated for specific experimental groups, vaccine was also formulated with Aluminium hydroxide (100 μg) or compound 080 (100 nmol, final DMSO concentration 10%). Serum was collected 28 days post-prime (pre-boost blood sample) and 14 days post-boost for antibody detection. rHA-specific IgG were quantified by ELISA. […] The optical density was read at 450 nm Versamax microplate reader with SoftMax Pro Version 5 (both from Molecular Devices) and endpoint titers were calculated using as cutoff three times the optical density of the background.

A further assay addresses T1, human TLR2 (Homo sapiens, UniProt O60603).
T1 construct: expressed in transfected cells; host or cells: HEK-Blue (human embryonic kidney) cells with an NF-kB-inducible SEAP reporter
Briefly: HEK293 assay for human TLR2 selectivity (NF-κB/SEAP). The note with it: 18-24 hours stimulation, titratable. Format: cell-based. How it is done: (§1) HEK293 assay for human TLR2 and TLR8 selectivity: Human embryonic kidney (HEK) 293 cells expressing human TLR2 or TLR8 with an NF-κB-responsive secreted embryonic alkaline phosphatase (SEAP) reporter gene were obtained from Invivogen (San Diego, CA). Cells were maintained in RPMI or DMEM with 10% heat inactivated-FBS and selection antibiotics per the manufacturer's instructions. Cells were plated at 5×10^5 cells/96-well and stimulated with indicated agonist(s) for 24 hours. Supernatants were harvested and analyzed for NF-κB/SEAP activation using the QuantiBlue kit (Invivogen). Values are expressed as fold change in OD650 over vehicle-only treated samples.

A further assay addresses T2, human TLR8 (Homo sapiens, UniProt Q9NR97).
T2 construct: host or cells: HEK293 cells with an NF-kB-responsive SEAP reporter gene
T2 sequence (Q9NR97 27-1041): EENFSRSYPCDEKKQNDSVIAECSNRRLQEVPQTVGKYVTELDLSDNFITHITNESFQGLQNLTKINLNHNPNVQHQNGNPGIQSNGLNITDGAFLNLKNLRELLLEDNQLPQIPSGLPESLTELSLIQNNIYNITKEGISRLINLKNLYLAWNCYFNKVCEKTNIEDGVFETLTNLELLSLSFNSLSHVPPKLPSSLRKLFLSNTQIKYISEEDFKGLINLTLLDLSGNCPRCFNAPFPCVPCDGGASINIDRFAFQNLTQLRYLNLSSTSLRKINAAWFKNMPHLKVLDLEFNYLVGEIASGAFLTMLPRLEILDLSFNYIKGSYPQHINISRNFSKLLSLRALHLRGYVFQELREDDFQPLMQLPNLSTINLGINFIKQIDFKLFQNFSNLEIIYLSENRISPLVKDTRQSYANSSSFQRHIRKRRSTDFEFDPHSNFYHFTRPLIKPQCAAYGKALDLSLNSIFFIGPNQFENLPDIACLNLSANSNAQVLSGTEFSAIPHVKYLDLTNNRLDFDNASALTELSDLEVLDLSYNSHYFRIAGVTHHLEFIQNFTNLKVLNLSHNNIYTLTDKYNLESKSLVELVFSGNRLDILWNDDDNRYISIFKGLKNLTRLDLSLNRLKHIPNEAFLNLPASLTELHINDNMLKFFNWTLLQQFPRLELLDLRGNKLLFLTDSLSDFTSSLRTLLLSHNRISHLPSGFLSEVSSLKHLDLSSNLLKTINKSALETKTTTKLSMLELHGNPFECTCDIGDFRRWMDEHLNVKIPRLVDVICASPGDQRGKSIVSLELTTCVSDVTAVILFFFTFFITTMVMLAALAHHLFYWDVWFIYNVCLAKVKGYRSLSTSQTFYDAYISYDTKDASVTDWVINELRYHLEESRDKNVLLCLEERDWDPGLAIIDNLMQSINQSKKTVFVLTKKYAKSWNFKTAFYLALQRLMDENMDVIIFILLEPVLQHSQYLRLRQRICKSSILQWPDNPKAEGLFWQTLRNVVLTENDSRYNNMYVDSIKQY
Put plainly: HEK293 assay for human TLR8 selectivity (NF-κB/SEAP). Format: cell-based. The following applies: selectivity counter-assay. Here is the method:
as §1

Where [1] appears, read: human adult PBMCs, 24 hours, compounds at 100 µM (FIG. 7), ELISA, median.

“Also recorded” adds a separate entry of the source.

T1 sequence (O60603 21-784): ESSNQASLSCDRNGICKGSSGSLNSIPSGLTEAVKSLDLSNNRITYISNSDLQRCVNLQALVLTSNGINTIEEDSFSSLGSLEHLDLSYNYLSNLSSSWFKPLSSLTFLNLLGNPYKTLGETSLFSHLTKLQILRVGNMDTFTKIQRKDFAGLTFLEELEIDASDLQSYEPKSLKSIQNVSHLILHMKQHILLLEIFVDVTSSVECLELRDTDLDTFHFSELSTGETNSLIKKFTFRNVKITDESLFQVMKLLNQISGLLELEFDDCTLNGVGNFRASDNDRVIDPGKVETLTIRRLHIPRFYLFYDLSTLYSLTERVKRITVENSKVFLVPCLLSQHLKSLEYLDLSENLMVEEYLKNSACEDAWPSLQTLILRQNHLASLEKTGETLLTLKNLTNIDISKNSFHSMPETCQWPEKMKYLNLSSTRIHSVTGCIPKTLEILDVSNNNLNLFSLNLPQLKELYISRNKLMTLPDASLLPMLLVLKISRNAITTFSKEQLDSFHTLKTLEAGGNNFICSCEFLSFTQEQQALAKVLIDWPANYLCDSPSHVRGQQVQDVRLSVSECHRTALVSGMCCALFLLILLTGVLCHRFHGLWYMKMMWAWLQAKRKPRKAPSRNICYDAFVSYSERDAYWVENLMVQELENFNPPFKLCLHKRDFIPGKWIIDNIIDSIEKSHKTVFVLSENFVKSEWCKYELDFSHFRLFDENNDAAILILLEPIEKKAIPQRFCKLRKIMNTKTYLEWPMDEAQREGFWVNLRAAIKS

For `CNC(=O)c1c(NC(=O)c2ccc(S(=O)(=O)N(C)C)cc2)sc2c1CCC2` [Compound 80], the “Activation of human adult PBMCs” value in the assay on human adult PBMCs (384 and 96 well assay) is “induced activation”. In the assay on human adult PBMCs (24 hours, 100 μM, ELISA), the “Cytokine production (TNF and IL-6) from human adult PBMCs” value is reported as “induces cytokine production”. In the assay with human adult PBMCs (setting [1]), the “Adult PBMCs (median ng/ml) IL-6 (N = 7)” value came out at 1.868 ng/mL and the “Adult PBMCs (median ng/ml) TNFa (N = 13)” value was determined as 0.1958 ng/mL. In addition, in the assay on C57BL/6 mice, the “Adjuvant activity in vivo (anti-rHA IgG titers)” value is recorded as “exerts adjuvant activity in vivo; also recorded: higher antibody titers; also recorded: demonstrates in vivo adjuvanticity”. Further, at human TLR2, the “TLR2 activation in HEK TLR2 cells (SEAP)” value is “induced TLR2 specific activation”. For the same compound, on human TLR8, the “TLR8 induction in HEK TLR8 cells (SEAP)” value was “without induction of TLR8”.

These data come from patent publication US12268739B2, “Use of toll-like receptor 2 (TLR-2) agonist for modulating human immune response” (Children's Medical Center Corporation, priority 2018, dated 2025).
